Measurements as given in the supplement of paper PMC4237247.

Legend:
HeLa [1] = assay: maximal percent of cells arrested in mitosis within titration; higher = stronger mitotic arrest; conditions: 20 h
Procedure: (§1)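 HeLa cells were treated with a titration of each re-synthesised mitotic inhibitor. Mitotic arrest IC50 comes from a 20 h titration (190 pM to 10 uM) read as % G2/M by Vybrant DyeCycle Green cell cycle profiling on an Acumen cytometer. Cell viability IC50 comes from a 72 h titration (12.2 nM to 100 uM) read by CellTiter-Glo ATP luminescence, with curves fitted in CDD software. The maximal % of cells arrested in mitosis within the titration is also reported.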

HeLa [2] = assay: mitotic arrest IC50 (G2/M DNA content, 20 h); higher = less potent
Procedure: as §1

HeLa [3] = assay: cell viability IC50 (CellTiter-Glo, 72 h); higher = less potent
Procedure: as §1

| SMILES | maximal percent (HeLa [1]) [%] | mitotic arrest IC50 (HeLa [2]) [nM] | cell viability IC50 (HeLa [3]) [nM] |
| --- | --- | --- | --- |
| CC(=O)Nc1ccc(Nc2nc(-c3c(C)nc4ccccn34)cs2)cc1 | 65.3 | 88.5 | 121 |
| COC(=O)Nc1nc2cc(Sc3ccccc3)ccc2[nH]1 [Fenbendazole] | 62.5 | 279 | 389 |
| COC(=O)Nc1nc2cc(C(=O)c3cccs3)ccc2[nH]1 [Nocodazole] | 68.5 | 129 | 45.6 |
| O=c1[nH]c(/C=C/c2ccccc2F)nc2ccccc12 | 49.9 | 285 | 720 |
| COC(=O)Nc1nc2cc(C(=O)c3ccccc3)ccc2[nH]1 [Mebendazole] | 76.6 | 202 | 222 |
| O=C(O)c1ccccc1SC1CC(=O)N(c2ccc(Br)cc2)C1=O (stereo not drawn) | 70.4 | 2650 | 2270 |
| CC(=O)O[C@H]1C(=O)[C@@]2(C)[C@H]([C@H](OC(=O)c3ccccc3)[C@]3(O)C[C@H](OC(=O)[C@H](O)[C@@H](NC(=O)c4ccccc4)c4ccccc4)C(C)=C1C3(C)C)[C@]1(OC(C)=O)CO[C@@H]1C[C@@H]2O [Taxol] | 74 | 37.1 | 27.3 |
| O=c1[nH]c(/C=C/c2ccccc2)nc2ccccc12 | 61 | 1350 | 1160 |
| CCN(CC)CCN1C(=O)C(=O)C(=C(O)c2ccccc2)C1c1ccccc1F (stereo not drawn) | 55.8 | 4780 | 6630 |
| COc1cc(-c2onc3ccc(Cl)cc23)cc(OC)c1OC | 54.8 | 539 | 470 |
| O=C(CSc1nc2ccc([N+](=O)[O-])cc2s1)c1ccc(Cl)cc1 | 61.7 | 9120 | 12500 |
